Results published in US20160377635A1, “Measurement of Oxytocin and Vasopressin” (Martin-Protean LLC, priority 2013, published 2016).

How the values were obtained:
albumin = albumin (Homo sapiens, UniProt P02768); test: incubation with free thiol containing albumin, acetone precipitation; format: in vitro ADME
Method: (§1) Oxytocin and vasopressin undergo disulfide exchange with abundant thiol containing compounds under aerobic conditions like those found in blood plasma. […] If albumin (1 mM) is added to that mixture all detectable oxytocin and vasopressin sequester with albumin upon acetone precipitation. Oxytocin immunoreactivity in plasma is associated with high molecular weight species (Szeto et al). When beta-mercaptoethanol (1 M) and histamine (30 mM) are added to plasma, oxytocin and vasopressin in the 1-100 nM range were recovered rather than the 1-100 pM range recovered without thiols or reported routinely with existing commercially available immunoreactivity tests. The mid nanomolar range is much more consistent with the concentrations required in biological assays for these compounds, such as inducing the lactation reflect with rabbit mammary tissue. Nanomolar concentrations for oxytocin and vasopressin are also far more consistent with the doses required for either peptide in intervention regimes.
Acetone extraction of the incubation clears oxytocin and vasopressin from the solution into the pellet with the albumin. In one embodiment, exceptionally short half-life of oxytocin is measured with immunoreactivity on acetone extracted fractions. Observation of disulfide exchange mediated accumulation of oxytocin on high molecular weight proteins in the plasma.

[1] = tested on: excised and bathed section of mammary gland tissue; settings: cited from earlier work
[2] = disulfide exchange with plasma thiols in the presence of air; format: physicochemical
Method: as §1
Incubating oxytocin and vasopressin them with glutathione at its plasma concentration in the presence of air (as in blood) induces oxytocin and vasopressin to disulfide exchange with glutathione and undergo additional oxidation resulting in the accumulation of diglutathione adducts (FIGS. 4A-C). This additional oxidation-containing product accumulates even in the presence of a vast excess of reducing equivalents in the form of remaining excess reduced glutathione. The introduction of air lead to a disulfide exchange result distinct from that observed in the published literature. The disulfide exchange is inhibited by EDTA which is added to most blood as a preservative. In the body the hormones undergo exchange, but in collected blood the EDTA will inhibit diglutathione formation unless the redox state of the collected blood is perturbed, as FIG. 5.

[3] = reduced glutathione (1 mM) and oxygen, peptide ~10 nM
[4] = reduced glutathione, reduced cysteine (0.5 mM) and oxygen

albumin, sequence (P02768 25-609, species assumed): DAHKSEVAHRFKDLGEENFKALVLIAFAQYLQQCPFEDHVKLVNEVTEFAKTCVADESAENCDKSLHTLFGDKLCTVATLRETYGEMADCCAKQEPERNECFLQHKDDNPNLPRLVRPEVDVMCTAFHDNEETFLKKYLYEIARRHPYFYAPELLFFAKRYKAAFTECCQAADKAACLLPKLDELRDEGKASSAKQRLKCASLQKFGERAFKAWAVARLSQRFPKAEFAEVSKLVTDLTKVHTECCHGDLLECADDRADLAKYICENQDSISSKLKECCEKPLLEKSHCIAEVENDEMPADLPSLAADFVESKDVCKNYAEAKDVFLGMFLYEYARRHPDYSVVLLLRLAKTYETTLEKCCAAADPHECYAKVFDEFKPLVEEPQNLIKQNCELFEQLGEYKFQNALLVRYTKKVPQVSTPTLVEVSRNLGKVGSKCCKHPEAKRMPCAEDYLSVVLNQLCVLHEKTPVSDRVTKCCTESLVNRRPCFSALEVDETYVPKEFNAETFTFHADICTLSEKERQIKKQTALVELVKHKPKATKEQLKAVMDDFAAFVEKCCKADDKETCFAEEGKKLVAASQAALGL

Row | Structure (SMILES) | adsorption to albumin (albumin; pH 7.4) | linear response range for contraction response [1] [ng/mL] | adduct formation by disulfide exchange [2, 3] | adduct formation by disulfide exchange [2, 4] | adsorption to albumin (albumin; pH 7.4, room temperature (or 37° C.), with or without glutathione and cysteine)
1 | CC[C@H](C)[C@@H]1NC(=O)[C@H](Cc2ccc(O)cc2)NC(=O)[C@@H](N)CSSC[C@@H](C(=O)N2CCC[C@H]2C(=O)N[C@@H](CC(C)C)C(=O)NCC(N)=O)NC(=O)[C@H](CC(N)=O)NC(=O)[C@H](CCC(N)=O)NC1=O [oxytocin] | quantitative adsorption to albumin | 1 to 20 | form diglutathione adducts | form dicysteine adducts | 
2 | NC(=O)CC[C@@H]1NC(=O)[C@H](Cc2ccccc2)NC(=O)[C@H](Cc2ccc(O)cc2)NC(=O)[C@@H](N)CSSC[C@@H](C(=O)N2CCC[C@H]2C(=O)N[C@@H](CCCN=C(N)N)C(=O)NCC(N)=O)NC(=O)[C@H](CC(N)=O)NC1=O [vasopressin] |  |  | form diglutathione adducts | form dicysteine adducts | quantitative adsorption to albumin
